Measurements: patent US20240376097A1, “BCL-2 Inhibitor” (BeiGene Ltd., priority 2020, published 2024)

Key:
[1] = molecular target: recombinant human Bcl-2-G101V protein (Homo sapiens (Human), UniProt P10415, G101V); assay: Bcl-2-G101V TR-FRET Assay; format: binding; conditions: Bcl-2 G101V mutant, TR-FRET; read-out: Biochemical assay (IC50, nM) Bcl-2 G101V
In short: (§1)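 Percent inhibition of the Bcl-2-G101V–ligand interaction was computed from the 490 nm to 520 nm emission ratio after 337 nm excitation, over increasing compound concentrations; a four-parameter logistic fit gave IC50.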

[2] = tested on: recombinant human Bcl-2-G101V protein; assay: Bcl-2-G101V TR-FRET Assay; format: binding; conditions: for Ratio of Bcl-2 G101V/WT: ratio of biochemical IC50 Bcl-2 G101V / Bcl-2 WT; for ratio of IC50 of Bcl-2 G101V/Bcl-2 wt, compared with Example F132b in WO2019210828 and ABT-199 (venetoclax): comparison in words
In short: as §1

[3] = tested on: BCL-2 G101V knock-in cell line H96 (derive from RS4;11); assay: Bcl 2-G101V Knock-In RS4;11 Cell Proliferation Assay; format: cell-based; conditions: Homo sapiens, RS4-11, 48 h, RS4;11 Bcl-2 G101V knock-in clone H96, 48 hrs, CellTiter-GLO, read-out: Cellular proliferation assay (IC50, nM) RS4
In short: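 CellTiter-Glo luminescence after 48 h, 37 °C compound treatment (10 concentrations, maximum 1 μM or 10 μM) gave mean IC50 values. Cells were 50,000 per well of H96, a BCL2-G101V knock-in single clone derived from RS4;11 by Cas9 editing.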

[4] = Metabolic Stability Study, liver microsome incubation (human); format: in vitro ADME; conditions: human liver microsomes 0.5 mg/mL, 1 μM compound, NADPH; for half-life at 1 μM: NA^# = very stable, beyond the detection limits, read-out: T1/2 (min) Human; for microsomal CLint at 1 μM: read-out: CLint (μL × min^−1 × mg^−1) Human
In short: (§2)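 Test compounds (1 μM) incubated at 37° C with 0.5 mg/mL liver microsomes plus NADPH regenerating system; samples quenched at 0, 30 and 60 min. Parent loss measured by LC-MS/MS, giving CLint and T1/2, with CLint normalised to microsomal protein concentration.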

[5] = Metabolic Stability Study, liver microsome incubation (mouse); format: in vitro ADME; conditions: mouse liver microsomes 0.5 mg/mL, 1 μM compound, NADPH; for half-life at 1 μM: NA^# = very stable, beyond the detection limits, read-out: T1/2 (min) mouse; for microsomal CLint at 1 μM: read-out: CLint (μL × min^−1 × mg^−1) mouse
In short: as §2

Q: Which results are given for `COc1cc(CN2CCN(C3CC4(C3)CN(c3ccc(C(=O)NS(=O)(=O)c5ccc(NC[C@H]6CC[C@](C)(O)CC6)c([N+](=O)[O-])c5)c(Oc5cnc6[nH]cc(F)c6c5)c3)C4)[C@H](c3ccccc3C(C)C)C2)cc(F)c1OC` [Example 230, 2-((3-fluoro-1H-pyrrolo[2,3-b]pyridin-5-yl)oxy)-4-(6-((R)-4-(3-fluoro-4,5-dimethoxybenzyl)-2-(2-isopropylphenyl)piperazin-1-yl)-2-azaspiro[3.3]heptan-2-yl)-N-((4-((((1r,4r)-4-hydroxy-4-methylcyclohexyl)methyl)amino)-3-nitrophenyl)sulfonyl)benzamide]?
A: IC50 [1]: 0.52 nM; Ratio of Bcl-2 G101V/WT [2]: 2.8; IC50 [3]: 0.28 nM; half-life at 1 μM [4]: 373 min; microsomal CLint at 1 μM [4]: 3.7 µL/min/mg; half-life at 1 μM [5]: 183 min; microsomal CLint at 1 μM [5]: 7.6 µL/min/mg

Q: What does the source list for `COc1cc(CN2CCN(C3CC4(C3)CN(c3ccc(C(=O)NS(=O)(=O)c5ccc(NC[C@H]6CC[C@](C)(O)CC6)c([N+](=O)[O-])c5)c(Oc5cnc6[nH]cc(F)c6c5)c3)C4)[C@H](c3ccccc3C(C)C)C2)ccc1C1CC1` [Example 232, 4-(6-((R)-4-(4-cyclopropyl-3-methoxybenzyl)-2-(2-isopropylphenyl)piperazin-1-yl)-2-azaspiro[3.3]heptan-2-yl)-2-((3-fluoro-1H-pyrrolo[2,3-b]pyridin-5-yl)oxy)-N-((4-((((1r,4r)-4-hydroxy-4-methylcyclohexyl)methyl)amino)-3-nitrophenyl)sulfonyl)benzamide]?
A: IC50 [1]: 1.3 nM; ratio of IC50 of Bcl-2 G101V/Bcl-2 wt, compared with Example F132b in WO2019210828 and ABT-199 (venetoclax) [2]: much lower; Ratio of Bcl-2 G101V/WT [2]: 1.8; IC50 [3]: 0.19 nM; half-life at 1 μM [4]: 822 min; microsomal CLint at 1 μM [4]: 1.7 µL/min/mg; half-life at 1 μM [5]: 206 min; microsomal CLint at 1 μM [5]: 6.7 µL/min/mg

Q: With `COc1cc(CN2CCN(C3CC4(C3)CN(c3ccc(C(=O)NS(=O)(=O)c5ccc(NC[C@H]6CC[C@](C)(O)CC6)c([N+](=O)[O-])c5)c(Oc5cnc6[nH]ccc6c5)c3)C4)[C@H](c3ccccc3C(C)C)C2)ccc1C1CC1` [Example 233, 2-((1H-pyrrolo[2,3-b]pyridin-5-yl)oxy)-4-(6-((R)-4-(4-cyclopropyl-3-methoxybenzyl)-2-(2-isopropylphenyl)piperazin-1-yl)-2-azaspiro[3.3]heptan-2-yl)-N-((4-((((1r,4r)-4-hydroxy-4-methylcyclohexyl)methyl)amino)-3-nitrophenyl)sulfonyl)benzamide] as the compound, how does the IC50 [1] read?
A: 0.95 nM

Q: And the “ratio of IC50 of Bcl-2 G101V/Bcl-2 wt, compared with Example F132b in WO2019210828 and ABT-199 (venetoclax)” value [2]?
A: much lower

Q: What about the “Ratio of Bcl-2 G101V/WT” value [2] of the same compound?
A: 2.2

Q: What about the IC50 [3] of the same compound?
A: 0.25 nM

Q: What about the half-life at 1 μM [4] of the same compound?
A: 534 min

Q: And the microsomal CLint at 1 μM [4]?
A: 2.6 µL/min/mg

Q: What about the half-life at 1 μM [5] of the same compound?
A: 253 min

Q: And the microsomal CLint at 1 μM [5]?
A: 5.5 µL/min/mg

Q: With `COc1cc(CN2CCN(C3CC4(CCN(c5ccc(C(=O)NS(=O)(=O)c6ccc(NC[C@H]7CC[C@](C)(O)CC7)c([N+](=O)[O-])c6)c(Oc6cnc7[nH]ccc7c6)c5)CC4)C3)[C@H](c3ccccc3C(C)C)C2)ccc1C1CC1` [Example 257] as the compound, how does the IC50 [1] read?
A: 0.99 nM

Q: What about the “Ratio of Bcl-2 G101V/WT” value [2] of the same compound?
A: 2.5

Q: And the IC50 [3]?
A: 0.53 nM

Q: What about the half-life at 1 μM [4] of the same compound?
A: 372 min

Q: And the microsomal CLint at 1 μM [4]?
A: 3.7 µL/min/mg

Q: And the half-life at 1 μM [5]?
A: 254 min

Q: What about the microsomal CLint at 1 μM [5] of the same compound?
A: 5.5 µL/min/mg

Q: What does the source list for `COc1cc(CN2CCN(C3CC4(C3)CN(c3ccc(C(=O)NS(=O)(=O)c5ccc(NC[C@H]6CC[C@](C)(O)CC6)c([N+](=O)[O-])c5)c(Oc5cnc6[nH]cc(F)c6c5)c3)C4)[C@H](c3ccccc3C(C)C)C2)ccc1C` [Example 274, 2-((3-fluoro-1H-pyrrolo[2,3-b]pyridin-5-yl)oxy)-N-((4-((((1r,4r)-4-hydroxy-4-methylcyclohexyl)methyl)amino)-3-nitrophenyl)sulfonyl)-4-(6-((R)-2-(2-isopropylphenyl)-4-(3-methoxy-4-methylbenzyl)piperazin-1-yl)-2-azaspiro[3.3]heptan-2-yl) benzamide]?
A: IC50 [1]: 0.85 nM; Ratio of Bcl-2 G101V/WT [2]: 1.5; IC50 [3]: 0.29 nM; half-life at 1 μM [4]: 344 min; microsomal CLint at 1 μM [4]: 4 µL/min/mg; half-life at 1 μM [5]: 289 min; microsomal CLint at 1 μM [5]: 4.8 µL/min/mg

Q: What does the source list for `COc1cc(CN2CCN(C3CC4(CCN(c5ccc(C(=O)NS(=O)(=O)c6ccc(NC[C@H]7CC[C@](C)(O)CC7)c([N+](=O)[O-])c6)c(Oc6cnc7[nH]cc(F)c7c6)c5)CC4)C3)[C@H](c3ccccc3C(C)C)C2)cc2ccoc12` [Example 281, 2-((3-fluoro-1H-pyrrolo[2,3-b]pyridin-5-yl)oxy)-N-((4-((((1r,4r)-4-hydroxy-4-methylcyclohexyl)methyl)amino)-3-nitrophenyl)sulfonyl)-4-(2-((R)-2-(2-isopropylphenyl)-4-((7-methoxybenzofuran-5-yl)methyl)piperazin-1-yl)-7-azaspiro[3.5]nonan-7-yl)benzamide]?
A: IC50 [1]: 0.99 nM; Ratio of Bcl-2 G101V/WT [2]: 2.3; IC50 [3]: 0.31 nM; half-life at 1 μM [4]: 870 min; microsomal CLint at 1 μM [4]: 1.6 µL/min/mg; half-life at 1 μM [5]: 564 min; microsomal CLint at 1 μM [5]: 2.5 µL/min/mg

Q: Which results are given for `COc1cc(CN2CCN(C3CC4(CCN(c5ccc(C(=O)NS(=O)(=O)c6ccc(NC[C@H]7CC[C@](C)(O)CC7)c([N+](=O)[O-])c6)c(Oc6cnc7[nH]cc(F)c7c6)c5)CC4)C3)[C@H](c3ccccc3C(C)C)C2)cc2c1OCC2(C)C` [Example 285, 2-((3-fluoro-1H-pyrrolo[2,3-b]pyridin-5-yl)oxy)-N-((4-((((1r,4r)-4-hydroxy-4-methylcyclohexyl)methyl)amino)-3-nitrophenyl)sulfonyl)-4-(2-((R)-2-(2-isopropylphenyl)-4-((7-methoxy-3,3-dimethyl-2,3-dihydrobenzofuran-5-yl)methyl)piperazin-1-yl)-7-azaspiro [3.5]nonan-7-yl)benzamide]?
A: IC50 [1]: 0.87 nM; Ratio of Bcl-2 G101V/WT [2]: 3.4; IC50 [3]: 0.41 nM; half-life at 1 μM [4]: 299 min; microsomal CLint at 1 μM [4]: 4.6 µL/min/mg; half-life at 1 μM [5]: 177 min; microsomal CLint at 1 μM [5]: 7.8 µL/min/mg

Q: For `COc1cc(CN2CCN(C3CC4(C3)CN(c3ccc(C(=O)NS(=O)(=O)c5ccc(NC[C@H]6CC[C@](C)(O)CC6)c([N+](=O)[O-])c5)c(Oc5cnc6[nH]cc(F)c6c5)c3)C4)[C@H](c3ccccc3C(C)C)C2)cc2c1OCCC2` [Example 312, 2-((3-fluoro-1H-pyrrolo[2,3-b]pyridin-5-yl)oxy)-N-((4-((((1r,4r)-4-hydroxy-4-methylcyclohexyl)methyl)amino)-3-nitrophenyl)sulfonyl)-4-(6-((R)-2-(2-isopropylphenyl)-4-((8-methoxychroman-6-yl)methyl)piperazin-1-yl)-2-azaspiro[3.3]heptan-2-yl)benzamide], which IC50 [1] is on record?
A: 0.27 nM

Q: What about the “Ratio of Bcl-2 G101V/WT” value [2] of the same compound?
A: 2.9

Q: What about the IC50 [3] of the same compound?
A: 0.3 nM

Q: What about the half-life at 1 μM [4] of the same compound?
A: 423 min

Q: And the microsomal CLint at 1 μM [4]?
A: 3.3 µL/min/mg

Q: And the half-life at 1 μM [5]?
A: 362 min

Q: What about the microsomal CLint at 1 μM [5] of the same compound?
A: 3.8 µL/min/mg

Q: With `COc1cc(CN2CCN(C3CC4(C3)CN(c3ccc(C(=O)NS(=O)(=O)c5ccc(NC[C@H]6CC[C@](C)(O)CC6)c([N+](=O)[O-])c5)c(Oc5cnc6[nH]cc(F)c6c5)c3)C4)[C@H](c3ccccc3C(C)C)C2)ccc1OC1CC1` [Example 321, 4-(6-((R)-4-(4-cyclopropoxy-3-methoxybenzyl)-2-(2-isopropylphenyl)piperazin-1-yl)-2-azaspiro[3.3]heptan-2-yl)-2-((3-fluoro-1H-pyrolo[2,3-b]pyridin-5-yl)oxy)-N-((4-((((1r,4r)-4-hydroxy-4-methylcyclohexy)methyl)amino)-3-nitrophenyl)sulfonyl)benzamide] as the compound, how does the IC50 [1] read?
A: 0.35 nM

Q: And the “Ratio of Bcl-2 G101V/WT” value [2]?
A: 2

Q: What about the IC50 [3] of the same compound?
A: 0.24 nM

Q: And the half-life at 1 μM [4]?
A: 1020 min

Q: And the microsomal CLint at 1 μM [4]?
A: 1.4 µL/min/mg

Q: And the half-life at 1 μM [5]?
A: 628 min

Q: What about the microsomal CLint at 1 μM [5] of the same compound?
A: 2.2 µL/min/mg
